Measured values as given in patent publication EP0612730A1, “O-aryl ethers of morphinans” (F. HOFFMANN-LA ROCHE AG, priority 1993, dated 1994).
Where a name gives a salt, the structure may show the parent alone.

What was measured:
[1] = tested on: cell suspensions prepared from embryonic rat cortices; test: Acute glutamate neurotoxicity in cortical cell cultures (lactate dehydrogenase release); assay type: cell-based; conditions: embryonic rat cortical cultures 8-12 days in vitro, glutamate for 5 to 30 min at room temperature, LDH in supernatant after overnight at 37°C
Protocol: 2. Acute glutamate neurotoxicity
Single cell suspensions were prepared from embryonic rat cortices by digestion with dispase (2.4 U/ml) and subsequent trituration with fire polished Pasteur pipettes. The cells were then plated on poly-D-lysine coated microtiter plates (96 well/plate, 10⁵ cells/well) in a total volume of 100 µl essential medium supplemented with 10% horse serum and penicillin/streptomycin . Five days later, non-neuronal cell division was halted by exposure to […] combined with a 50% exchange of culture medium. The cultures were used for neurotoxicity assays from 8-12 days in vitro. Acute glutamate toxicity was performed as described in J. Koh et al. in Neurosci. 8, 1988, 185-196, in […] of a control salt solution [CSS: 120 mM NaCl, 5.4 mM KCl, 0.8 mm MgCl₂, 1.8 mM CaCl₂, 25 mM Tris HCl (pH 7.4 at 25°C) and 15 mM glycose] with […] glutamate for 5 to 30 min at room temperature with or without addition of substances to be tested.After washing, the cultures were maintained in 100 µl CSS overnight at 37°C. For quantitation of neurodegeneration, lactate dehydrogenase was measured in the cell culture supernatant as described by J.G. Klingman et al. in Neurosci. Meth. 31, 1990, 47-51. […] From dose response curves, IC₅₀ values were calculated.

NMDA receptor = test: NMDA-induced convulsions in mice (NMDA-induced anticonvulsant test); assay type: in vivo; conditions: NMDA 175 mg/kg i.p. 30 min after i.p. test compound (60 min after oral), percent protection = 100 (E-C)/(10-C), dose and route of test compound not given
Source text: As indicated above, the compounds of formula I are active as non-competitive NMDA receptor antagonists and are therefore, useful as neuroprotecting agents, for example, in the treatment of injury to central neurons associated with ischemia, hypoxia, hypoglycemia, epilepsy, Huntington's disease or Alzheimer's disease.
1. NMDA-Induced convulsions in mice
Male mice 45-54 days old and weighing 18-30 g are food-deprived for 24 hrs and then assigned in groups of 10 to various treatment conditions. In general, the method of Lehmann et al. described in J. Pharmacol. Exp. Ther. 240, 1987, 737-746, is used. Mice are administered a test compound intraperitoneally and are injected with NMDA (175 mg/kg i.p.) 30 minutes later. If any test compound is administered orally, the NMDA is injected 60 minutes later. NMDA is dissolved in 0.9% saline. Test compounds are likewise dissolved in 0.9% saline or, when necessary, suspended in 5% gum acacia. All injections are made in a volume of 0.2 ml/20 g body weight. […] Results are represented as the number of mice protected at each dose level of a test compound; this gives an indication of the degree of protection at each dose and indicates whether there was a dose level at which complete protection occurred. A formula is used which adjusts for the number of mice "protected" in the control group, since the dose of NMDA used induces convulsions in less than 100 percent of the mice in the control group. The formula used is: percent protection = 100 (E-C)/(10-C), where E is the number of mice protected at the dose of the test compound, C is the number of mice not convulsing in the vehicle control group, and 10 is the number of mice per group. A given dose level of a compound is regarded as being active if this percent protection score is equal to or greater than 50 percent.

Compound `CN1CC[C@@]23CCCC[C@@H]2[C@@H]1Cc1ccc(Oc2ncccc2N)cc13` [2 HCl] has an IC50 [1] of 14 µM.
For `CN1CC[C@]23CCCC[C@H]2[C@H]1Cc1ccc(Oc2ccccn2)cc13` [Example 2, (+)-3-(2-pyridyloxy)-N-methyl-morphinan], the IC50 [1] was 4 µM.
In the case of `CC(C)(CO)N1CC[C@]23CCCC[C@H]2[C@H]1Cc1ccc(Oc2ccccn2)cc13` [Example 18, (+)-β,β-dimethyl-3-(2-pyridinyloxy)morphinan-17-ethanol], the “% mice protected” value (NMDA receptor) is reported as 50% and the IC50 [1] is reported as 14 µM.
`Cc1cccc(Oc2ccc3c(c2)[C@@]24CCCC[C@H]2[C@@H](C3)NCC4)n1` [Example 22, (+)-3-[6-methyl-(2-pyridinyl)oxy] morphinan] gave an IC50 [1] of 1 to 2 µM.
In the case of `CN1CC[C@@]23CCCC[C@@H]2[C@@H]1Cc1ccc(Oc2nccs2)cc13` [Fumarate (the 1st table, row 4)], the “% mice protected” value (NMDA receptor) is reported as 86%.
In the case of `CN1CC[C@@]23CCCC[C@@H]2[C@@H]1Cc1ccc(Oc2cccc(Br)n2)cc13` [Fumarate (the 1st table, row 6)], the “% mice protected” value (NMDA receptor) is reported as 67%.
Work on `CN1CC[C@@]23CCCC[C@@H]2[C@@H]1Cc1ccc(Oc2cccc(Br)n2)cc13` [Fumarate (the 3rd table, row 5)] yielded an IC50 [1] of 1 to 2 µM.
`CN1CC[C@@]23CCCC[C@@H]2[C@@H]1Cc1ccc(Oc2nccs2)cc13` [Fumarate (the 3rd table, row 10)] was tested, and the IC50 [1] was 5 µM.
`CN1CC[C@@]23CCCC[C@@H]2[C@@H]1Cc1ccc(Oc2cccnc2)cc13` [Fumarate] gave an IC50 [1] of 6.4 µM.
In the case of `CN1CC[C@@]23CCCC[C@@H]2[C@@H]1Cc1ccc(Oc2cccs2)cc13` [Fumarate], the IC50 [1] is reported as 13 µM.
For `CN1CC[C@@]23CCCC[C@@H]2[C@@H]1Cc1ccc(Oc2ncccc2[N+](=O)[O-])cc13` [Fumarate], the IC50 [1] was 5 µM.
`CN1CC[C@@]23CCCC[C@@H]2[C@@H]1Cc1ccc(Oc2ncccn2)cc13` [Fumarate] was tested, and the IC50 [1] was 4 µM.
With `Cc1cccc(Oc2ccc3c(c2)[C@]24CCCC[C@@H]2[C@H](C3)N(C)CC4)n1` [Fumarate] the IC50 [1] was 0.2 µM.
In the case of `O=[N+]([O-])c1cccnc1Oc1ccc2c(c1)[C@]13CCCC[C@@H]1[C@H](C2)NCC3` [HCl], the IC50 [1] is reported as 0.5 µM.
For `c1ccc(Oc2ccc3c(c2)[C@]24CCCC[C@@H]2[C@H](C3)NCC4)cc1` [HCl], the IC50 [1] was 1 µM.
With `c1ccc(Oc2ccc3c(c2)[C@]24CCCC[C@@H]2[C@H](C3)NCC4)nc1` [Maleate] the IC50 [1] was 6 µM.
`c1csc(Oc2ccc3c(c2)[C@]24CCCC[C@@H]2[C@H](C3)NCC4)n1` [Maleate] showed an IC50 [1] of 8 µM.
`CN1CC[C@@]23CCCC[C@@H]2[C@@H]1Cc1ccc(Oc2ccccc2)cc13` [Oxalate] gave an IC50 [1] of 6 µM.
For `CN1CC[C@@]23CCCC[C@@H]2[C@@H]1Cc1ccc(Oc2ccccn2)cc13` [Oxalate], the “% mice protected” value (NMDA receptor) was 86%.
